In article PMC11172375, “Preclinical Evaluation of Biodistribution and Toxicity of [^211At]PSMA-5 in Mice and Primates for the Targeted Alpha Therapy against Prostate Cancer” (International Journal of Molecular Sciences, 2024):

Legend:
[1] = TLC metabolite analysis of blood samples, mice; format: in vivo; conditions: plasma
Procedure: Monkeys were anesthetized with intramuscular administration of ketamine (10 mg/kg) and xylazine (0.5 mg/kg) with isoflurane inhalation anesthesia. Planar and Single Photon Emission Computed Tomography (SPECT) imaging was performed in monkeys using a γ-camera system (E-cam, Siemens, Erlangen, Germany) immediately after administration to 1 h and at 3 and 24 h post-administration of [^211At]PSMA-5 (9 MBq/kg), targeting the X-rays emitted from the daughter nuclide ^211Po (energy window: 79 keV ± 20%). Subsequent image analysis was performed by setting the regions of interest using Osirix MD software (Version 13, Pixmeo SARL, Bernex, Switzerland) and PMOD software (Version 3.903, PMOD Technologies, Fällanden, Switzerland). Blood samples were obtained pre-administration and at 1, 3, and 24 h post-administration, followed by euthanasia via bloodletting at 24 h.
The blood samples were centrifuged at 3000 rpm for 5 min, and the resulting plasma was mixed with twice the volume of ethanol, then agitated vigorously. The supernatants were analyzed by thin-layer chromatography (TLC).

[2] = Blood chemistry examination in mice; format: in vivo, ICR mice
Procedure: [^211At]PSMA-5 was administered intravenously to 25 mice, and its biodistribution was evaluated. For the toxicity study, three doses of [^211At]PSMA-5 (5, 12, and 35 MBq/kg, single dose) or saline were intravenously administered to 10 mice/group for the main evaluation point on day 1, and 5-mice/group for recovery evaluation on day 14, adhering to the ICH M3 (R2) guidelines. The dosage was determined based on our previous study using [^211At]NaAt. The monkeys were monitored for 24 h post-administration of [^211At]PSMA-5 (9 MBq/kg).
A blood cell counter was used for the measurements (CB-1010; ARKRAY, Inc., Kyoto, Japan). Red blood cell count (RBC), hemoglobin concentration (Hb), hematocrit (Ht), white blood cell count (WBC), platelet count (platelet), lymphocytes (%Lymph), monocytes (%Mon), and granulocytes (%Gra) were calculated. Plasma was analyzed using a dry clinical chemistry analyzer (Spotchem D-00 QR D-02; ARKRAY, Inc., Kyoto, Japan). The levels of aspartate aminotransferase (AST), alanine aminotransferase (ALT), gamma-glutamyl transpeptidase (γ-GTP), lactate dehydrogenase (LDH), alkaline phosphatase (ALP), creatine kinase (CK), amylase (AMY), total bilirubin (TBIL), creatinine (CRE), urea nitrogen (BUN), glucose (GLU), total protein (TP), albumin (ALB), total cholesterol (TCHO), triglyceride (TG), and electrolytes (Na, K, and Cl) were measured.

In the case of `O=C(O)CC[C@H](NC(=O)N[C@@H](CCCCNC(=O)[C@@H](Cc1ccc2ccccc2c1)NC(=O)c1ccc(CNC(=O)[C@@H](CCC(=O)O)NC(=O)[C@@H](CCC(=O)O)NC(=O)Cc2ccc([211At])cc2)cc1)C(=O)O)C(=O)O` [[^211At]PSMA-5], the “metabolites in blood samples (TLC)” value [1] is reported as “no metabolites were detected”, the ALB ([2]; 5 MBq/kg i.v., day 1) is reported as 2.3 ± 0.2 g/dL and the ALP ([2]; 5 MBq/kg i.v., day 1) is reported as 194 ± 86 IU/L. The ALT ([2]; 5 MBq/kg i.v., day 1) was 41.2 ± 31.6 IU/L, the AMY ([2]; 5 MBq/kg i.v., day 1) was 2675 ± 562 IU/L and the AST ([2]; 5 MBq/kg i.v., day 1) was 43.8 ± 30.3 IU/L. The BUN ([2]; 5 MBq/kg i.v., day 1) was 22 ± 8.3 mg/dL, the CK ([2]; 5 MBq/kg i.v., day 1) was 180 ± 60 IU/L and the CRE ([2]; 5 MBq/kg i.v., day 1) was 0.2 ± 0 mg/dL. For the same compound, the GLU ([2]; 5 MBq/kg i.v., day 1) was 198 ± 70 mg/dL, the K ([2]; 5 MBq/kg i.v., day 1) was 4.5 ± 0.5 mEq/L and the LDH ([2]; 5 MBq/kg i.v., day 1) was 641 ± 281 IU/L. The Na ([2]; 5 MBq/kg i.v., day 1) was 141 ± 2.5 mEq/L, the TBIL ([2]; 5 MBq/kg i.v., day 1) was 0.6 ± 0.22 mg/dL and the TCHO ([2]; 5 MBq/kg i.v., day 1) was 130 ± 20 mg/dL. The TG ([2]; 5 MBq/kg i.v., day 1) was 112 ± 75 mg/dL, the TP ([2]; 5 MBq/kg i.v., day 1) was 4.1 ± 0.4 g/dL and the γ-GTP ([2]; 5 MBq/kg i.v., day 1) was 10 ± 0 IU/L. For the same compound, the ALB ([2]; 5 MBq/kg i.v., day 14) was 2.2 ± 0.1 g/dL, the ALP ([2]; 5 MBq/kg i.v., day 14) was 171 ± 36 IU/L and the ALT ([2]; 5 MBq/kg i.v., day 14) was 16.5 ± 4.9 IU/L. The AMY ([2]; 5 MBq/kg i.v., day 14) was 2200 ± 428 IU/L, the AST ([2]; 5 MBq/kg i.v., day 14) was 45 ± 22.7 IU/L and the BUN ([2]; 5 MBq/kg i.v., day 14) was 27.6 ± 1.1 mg/dL. For the same compound, the CK ([2]; 5 MBq/kg i.v., day 14) was 162 ± 91 IU/L, the CRE ([2]; 5 MBq/kg i.v., day 14) was 0.2 ± 0 mg/dL and the GLU ([2]; 5 MBq/kg i.v., day 14) was 146 ± 39 mg/dL. The K ([2]; 5 MBq/kg i.v., day 14) was 5.1 ± 1.2 mEq/L, the LDH ([2]; 5 MBq/kg i.v., day 14) was 611 ± 24 IU/L and the Na ([2]; 5 MBq/kg i.v., day 14) was 143 ± 1.9 mEq/L. For the same compound, the TBIL ([2]; 5 MBq/kg i.v., day 14) was 0.88 ± 0.16 mg/dL, the TCHO ([2]; 5 MBq/kg i.v., day 14) was 151 ± 18 mg/dL and the TG ([2]; 5 MBq/kg i.v., day 14) was 75 ± 17 mg/dL. The TP ([2]; 5 MBq/kg i.v., day 14) was 4.1 ± 0.5 g/dL, the γ-GTP ([2]; 5 MBq/kg i.v., day 14) was 10 ± 0 IU/L and the ALB ([2]; 12 MBq/kg i.v., day 1) was 2.3 ± 0.2 g/dL. For the same compound, the ALP ([2]; 12 MBq/kg i.v., day 1) was 193 ± 100 IU/L, the ALT ([2]; 12 MBq/kg i.v., day 1) was 29.0 ± 5.8 IU/L and the AMY ([2]; 12 MBq/kg i.v., day 1) was 2666 ± 537 IU/L. It also gave an AST ([2]; 12 MBq/kg i.v., day 1) of 37 ± 11.5 IU/L, a BUN ([2]; 12 MBq/kg i.v., day 1) of 20.7 ± 8.3 mg/dL and a CK ([2]; 12 MBq/kg i.v., day 1) of 192 ± 50 IU/L. It also gave a CRE ([2]; 12 MBq/kg i.v., day 1) of 0.2 ± 0 mg/dL, a GLU ([2]; 12 MBq/kg i.v., day 1) of 185 ± 42 mg/dL and a K ([2]; 12 MBq/kg i.v., day 1) of 4.5 ± 0.3 mEq/L. It also gave an LDH ([2]; 12 MBq/kg i.v., day 1) of 736 ± 363 IU/L, a Na ([2]; 12 MBq/kg i.v., day 1) of 142 ± 2.0 mEq/L and a TBIL ([2]; 12 MBq/kg i.v., day 1) of 0.53 ± 0.16 mg/dL. The TCHO ([2]; 12 MBq/kg i.v., day 1) was 128 ± 20 mg/dL, the TG ([2]; 12 MBq/kg i.v., day 1) was 119 ± 75 mg/dL and the TP ([2]; 12 MBq/kg i.v., day 1) was 4.1 ± 0.3 g/dL. For the same compound, the γ-GTP ([2]; 12 MBq/kg i.v., day 1) was 10 ± 0 IU/L, the ALB ([2]; 12 MBq/kg i.v., day 14) was 2.1 ± 0.3 g/dL and the ALP ([2]; 12 MBq/kg i.v., day 14) was 110 ± 59 IU/L. It also gave an ALT ([2]; 12 MBq/kg i.v., day 14) of 21.5 ± 0.7 IU/L, an AMY ([2]; 12 MBq/kg i.v., day 14) of 2514 ± 549 IU/L and an AST ([2]; 12 MBq/kg i.v., day 14) of 28.8 ± 15.4 IU/L. For the same compound, the BUN ([2]; 12 MBq/kg i.v., day 14) was 30.6 ± 6.1 mg/dL, the CK ([2]; 12 MBq/kg i.v., day 14) was 144 ± 26 IU/L and the CRE ([2]; 12 MBq/kg i.v., day 14) was 0.22 ± 0.04 mg/dL. For the same compound, the GLU ([2]; 12 MBq/kg i.v., day 14) was 148 ± 24 mg/dL, the K ([2]; 12 MBq/kg i.v., day 14) was 5.4 ± 0.8 mEq/L and the LDH ([2]; 12 MBq/kg i.v., day 14) was 456 ± 72 IU/L. The Na ([2]; 12 MBq/kg i.v., day 14) was 143 ± 2.8 mEq/L, the TBIL ([2]; 12 MBq/kg i.v., day 14) was 0.68 ± 0.13 mg/dL and the TCHO ([2]; 12 MBq/kg i.v., day 14) was 138 ± 20 mg/dL. For the same compound, the TG ([2]; 12 MBq/kg i.v., day 14) was 87 ± 42 mg/dL, the TP ([2]; 12 MBq/kg i.v., day 14) was 3.9 ± 0.4 g/dL and the γ-GTP ([2]; 12 MBq/kg i.v., day 14) was 10 ± 0 IU/L. The ALB ([2]; 35 MBq/kg i.v., day 1) was 2.2 ± 0.1 g/dL, the ALP ([2]; 35 MBq/kg i.v., day 1) was 208 ± 67 IU/L and the ALT ([2]; 35 MBq/kg i.v., day 1) was 53.0 ± 10.3 IU/L. For the same compound, the AMY ([2]; 35 MBq/kg i.v., day 1) was 2795 ± 363 IU/L, the BUN ([2]; 35 MBq/kg i.v., day 1) was 19.6 ± 6.2 mg/dL and the CK ([2]; 35 MBq/kg i.v., day 1) was 170 ± 65 IU/L. The CRE ([2]; 35 MBq/kg i.v., day 1) was 0.2 ± 0 mg/dL, the GLU ([2]; 35 MBq/kg i.v., day 1) was 201 ± 31 mg/dL and the K ([2]; 35 MBq/kg i.v., day 1) was 5.1 ± 0.5 mEq/L. The LDH ([2]; 35 MBq/kg i.v., day 1) was 638 ± 385 IU/L, the Na ([2]; 35 MBq/kg i.v., day 1) was 140 ± 1.4 mEq/L and the TBIL ([2]; 35 MBq/kg i.v., day 1) was 0.71 ± 0.48 mg/dL. The TCHO ([2]; 35 MBq/kg i.v., day 1) was 129 ± 21 mg/dL, the TG ([2]; 35 MBq/kg i.v., day 1) was 122 ± 79 mg/dL and the TP ([2]; 35 MBq/kg i.v., day 1) was 4.0 ± 0.3 g/dL. For the same compound, the γ-GTP ([2]; 35 MBq/kg i.v., day 1) was 10 ± 0 IU/L, the AST ([2]; 35 MBq/kg i.v., day 1, hemolysis was observed) was 51.5 ± 36.2 IU/L and the ALB ([2]; 35 MBq/kg i.v., day 14) was 2.3 ± 0.1 g/dL. It also gave an ALP ([2]; 35 MBq/kg i.v., day 14) of 133 ± 46 IU/L, an ALT ([2]; 35 MBq/kg i.v., day 14) of 13.0 ± 0.0 IU/L and an AMY ([2]; 35 MBq/kg i.v., day 14) of 2678 ± 388 IU/L. It also gave an AST ([2]; 35 MBq/kg i.v., day 14) of 28.4 ± 9.9 IU/L, a BUN ([2]; 35 MBq/kg i.v., day 14) of 23.4 ± 3.4 mg/dL and a CK ([2]; 35 MBq/kg i.v., day 14) of 141 ± 18 IU/L. It also gave a CRE ([2]; 35 MBq/kg i.v., day 14) of 0.2 ± 0 mg/dL, a GLU ([2]; 35 MBq/kg i.v., day 14) of 141 ± 21 mg/dL and a K ([2]; 35 MBq/kg i.v., day 14) of 4.7 ± 0.6 mEq/L. It also gave an LDH ([2]; 35 MBq/kg i.v., day 14) of 538 ± 129 IU/L, a Na ([2]; 35 MBq/kg i.v., day 14) of 143 ± 2.6 mEq/L and a TBIL ([2]; 35 MBq/kg i.v., day 14) of 0.68 ± 0.33 mg/dL. It also gave a TCHO ([2]; 35 MBq/kg i.v., day 14) of 144 ± 15 mg/dL, a TG ([2]; 35 MBq/kg i.v., day 14) of 67 ± 18 mg/dL and a TP ([2]; 35 MBq/kg i.v., day 14) of 4.1 ± 0.2 g/dL. The γ-GTP ([2]; 35 MBq/kg i.v., day 14) was 10 ± 0 IU/L.
